Test results taken from US7816332B2, “Stable aqueous solution of natamycin fungicide” (DSM IP Assets B.V., priority 2003, dated 2010).
Like-named read-outs stand apart in the source and are kept apart here.

What was measured:
[1] = Dissolution of natamycin when preparing solutions, with controls (Example 1); assay type: physicochemical
Procedure: (§1) • An ethanolic aqueous solution having a pH of 12.8 was prepared by mixing 60 ml of a 0.04 N sodium hydroxide solution and 40 ml of 96% ethanol. • While stirring vigorously, 1 g of natamycin was added. The natamycin dissolved within 2 minutes. • Immediately after dissolution, the obtained concentrated natamycin solution was added to 20 l of a 0.01 M citrate buffer solution. A solution containing 57 ppm of natamycin and 0.2% of ethanol with a pH of 6.5 was obtained. • In a similar manner, a solution containing 101 ppm of natamycin and 0.4% of ethanol and a solution containing 202 ppm of natamycin and 0.8% of ethanol was obtained by adding the concentrated natamycin solution to […] of a 0.01 M citrate buffer respectively. Preparation of the Natamycin Solutions (2)
Controls • 1 g of natamycin was added to a neutral ethanolic aqueous system containing up to 40% of ethanol.

[2] = Stability of buffered natamycin solutions on storage, HPLC (Example 1); assay type: physicochemical; settings: for amount of natamycin after storage (HPLC): 24 hours at 21° C.
Procedure: as §1
Stability of the Solutions • The amount of natamycin in the compositions (1) was determined after 24 hours storage at 21° C. The amount of natamycin was determined using well-known methods (HPLC) and shown to be 57, 97 and 196 ppm respectively. Hardly any loss of activity was observed after 9 days storage at 6° C. The concentration of natamycin was 49, 100 and 170 ppm respectively. Even after storage for 9 days at 21° C., the concentration of natamycin of the composition containing 101 ppm at t=0 was 99 ppm.

[3] = Stability of non-buffered natamycin solutions on storage (Example 2); assay type: physicochemical
Procedure: This Example describes the rapid preparation of a stable aqueous composition of natamycin in a non-buffered aqueous system with enhanced solubility. • A concentrated natamycin solution was prepared as described in Example 1 (1). • However, after diluting the concentrated natamycin solution in water, the pH was adjusted to 6.4-6.6 using HCL. Finally, solutions containing 101 and 202 ppm of natamycin were obtained. • The amount of natamycin in the compositions was determined after 24 hours storage at 21° C. The concentration of natamycin was 99 and 192 ppm respectively. Hardly any loss of activity was observed after 9 days storage at 6° C. The concentration of natamycin was 98 and 198 ppm respectively. Even after storage for 9 days at 21° C. the concentration of natamycin in the composition containing 101 ppm at t=0 was 82 ppm. […] The amount of dissolved natamycin of these solutions is at least 6 times higher than the maximum solubility in water at the same pH values

most yeasts = settings: cited from earlier work
most foodborne fungi = settings: cited from earlier work
[4] = cited from earlier work

## C[C@@H]1C/C=C/C=C/C=C/C=C/[C@H](O[C@@H]2O[C@H](C)[C@@H](O)[C@H](N)[C@@H]2O)C[C@@H]2O[C@](O)(C[C@@H](O)C[C@H]3O[C@@H]3/C=C/C(=O)O1)C[C@H](O)[C@H]2C(=O)O [natamycin]
[1]; 1 g natamycin in 100 ml ethanolic aqueous solution of pH 12.8 (0.04 N NaOH / 96% ethanol 60:40), vigorous stirring
  time to dissolve: ≤ 2 min
[1]; 1 g natamycin in neutral ethanolic aqueous system containing up to 40% ethanol, a few hours of stirring
  dissolution (control): not fully dissolved
[1]; 200 ppm natamycin in buffered aqueous system, solvent not present
  dissolution (control): did not dissolve
[1]; 200 ppm natamycin, solvent present, without first raising the pH to 12.8
  dissolution (control): did not dissolve
[1]; same procedure as Example 1 without adding a solvent
  dissolution (control): did not dissolve
[2]; Example 1 buffered solutions
  amount of dissolved natamycin relative to maximum solubility in water at the same pH: at least 6 times
[2]; solution with 57 ppm at t=0, 0.2% ethanol, citrate buffer pH 6.5
  amount of natamycin after storage (HPLC): 57 ppm
[2]; solution with 57 ppm at t=0, 0.2% ethanol, citrate buffer, 9 days at 6° C.
  concentration of natamycin after storage: 49 ppm
[2]; solution with 101 ppm at t=0, 0.4% ethanol, citrate buffer
  amount of natamycin after storage (HPLC): 97 ppm
[2]; solution with 101 ppm at t=0, 0.4% ethanol, citrate buffer, 9 days at 6° C.
  concentration of natamycin after storage: 100 ppm
[2]; solution with 101 ppm at t=0, citrate buffer, 9 days at 21° C.
  concentration of natamycin after storage: 99 ppm
[2]; solution with 202 ppm at t=0, 0.8% ethanol, citrate buffer
  amount of natamycin after storage (HPLC): 196 ppm
[2]; solution with 202 ppm at t=0, 0.8% ethanol, citrate buffer, 9 days at 6° C.
  concentration of natamycin after storage: 170 ppm
[3]; Example 2 non-buffered solutions
  amount of dissolved natamycin relative to maximum solubility in water at the same pH: at least 6 times
[3]; non-buffered solution with 101 ppm at t=0, pH 6.4-6.6 (HCl), 24 hours at 21° C.
  concentration of natamycin after storage: 99 ppm
[3]; non-buffered solution with 101 ppm at t=0, 9 days at 6° C.
  concentration of natamycin after storage: 98 ppm
[3]; non-buffered solution with 101 ppm at t=0, 9 days at 21° C.
  concentration of natamycin after storage: 82 ppm
[3]; non-buffered solution with 202 ppm at t=0, pH 6.4-6.6 (HCl), 24 hours at 21° C.
  concentration of natamycin after storage: 192 ppm
[3]; non-buffered solution with 202 ppm at t=0, 9 days at 6° C.
  concentration of natamycin after storage: 198 ppm
Most yeasts
  minimal inhibitory concentration: less than 5 ppm
Most foodborne fungi
  minimal inhibitory concentration: less than 10 ppm
[4]; acetone/water (4:1) system
  maximum solubility: 110 ppm
[4]; ethanol/water (4:1) system
  solubility: 220 ppm
[4]; pure ethanol
  solubility: 40 ppm
[4]; water at neutral pH levels
  solubility in water: 30 ppm
